Test results taken from the supplement of paper PMC10307832.

Key:
Experiment in all cases: relative viability (nuclei count vs DMSO), 5 days (fraction); higher = more cells survive
[1] = compound: C(C(=O)C(=O)O)Br [Bromopyruvate] + CC1(C)CCC(c2ccc(Cl)cc2)=C(CN2CCN(c3ccc(C(=O)NS(=O)(=O)c4ccc(N[C@H](CCN5CCOCC5)CSc5ccccc5)c(S(=O)(=O)C(F)(F)F)c4)cc3)CC2)C1 [Navitoclax] (partner 0.5 µM)
How it was run: (§1)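 Each reported value is a median over duplicate plates. It expresses relative viability: treated-well nuclei count divided by vehicle-well nuclei count. Lung cancer cell lines in 1536-well plates were dosed by pin tool a day after seeding, alone with one drug or with a fixed anchor-drug dose plus five library-drug doses (not always all listed) in √10 steps, and nuclei were counted after 5 days.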

[2] = compound: C(C(=O)C(=O)O)Br [Bromopyruvate] + N=C(N)NC(=N)NCCc1ccccc1 [Phenformin] (partner 250 µM)
How it was run: as §1

[3] = compound: CC(O)(CS(=O)(=O)c1ccc(F)cc1)C(=O)Nc1ccc(C#N)c(C(F)(F)F)c1 [Bicalutamide] + CCNC(=O)c1noc(-c2cc(C(C)C)c(O)cc2O)c1-c1ccc(CN2CCOCC2)cc1 [Luminespib] (partner 0.01 µM)
How it was run: as §1

Bicalutamide + Alpelisib = compound: CC(O)(CS(=O)(=O)c1ccc(F)cc1)C(=O)Nc1ccc(C#N)c(C(F)(F)F)c1 [Bicalutamide] + Cc1nc(NC(=O)N2CCC[C@H]2C(N)=O)sc1-c1ccnc(C(C)(C)C(F)(F)F)c1 [Alpelisib] (partner 2 µM)
How it was run: as §1

| Cell Line | relative viability ([1]; first compound 1 µM) | relative viability ([1]; first compound 3.162 µM) | relative viability ([1]; first compound 10 µM) | relative viability ([1]; first compound 31.62 µM) | relative viability ([1]; first compound 100 µM) | relative viability ([2]; first compound 1 µM) | relative viability ([2]; first compound 3.162 µM) | relative viability ([2]; first compound 10 µM) | relative viability ([2]; first compound 31.62 µM) | relative viability ([2]; first compound 100 µM) | relative viability ([3]; first compound 0.08 µM) | relative viability ([3]; first compound 0.253 µM) | relative viability ([3]; first compound 0.8 µM) | relative viability ([3]; first compound 2.53 µM) | relative viability (Bicalutamide + Alpelisib; first compound 0.08 µM) | relative viability (Bicalutamide + Alpelisib; first compound 0.8 µM) | relative viability (Bicalutamide + Alpelisib; first compound 2.53 µM) | relative viability (Bicalutamide + Alpelisib; first compound 0.253 µM) |
| --- | --- | --- | --- | --- | --- | --- | --- | --- | --- | --- | --- | --- | --- | --- | --- | --- | --- | --- |
| NCI-H441 | 0.539 | 0.441 | 0.557 | 0.439 | 0.493 | 0.852 | 0.945 | 0.796 | 0.743 | 0.838 | 0.291 | 0.377 | 0.356 | 0.411 | 0.968 | 0.856 | 0.876 |  |
| NCI-H460 | 1.11 | 1.17 | 1.58 | 1.1 | 1.16 | 0.512 | 0.556 | 0.658 | 0.494 | 0.508 | 0.0289 | 0.0405 | 0.0453 | 0.035 | 0.52 | 0.685 | 0.506 | 0.429 |
| NCI-H520 | 1.05 | 1.08 | 1.21 | 1.18 | 1.03 | 0.646 | 0.648 | 0.623 | 0.702 | 0.473 | 0.232 | 0.22 | 0.274 | 0.205 | 1.08 | 1.1 | 0.808 | 0.945 |
| NCI-H596 | 0.871 | 0.964 | 1.1 | 0.877 | 1.07 | 0.694 | 0.724 | 0.501 | 0.695 | 0.822 | 1.08 | 0.945 | 1.28 | 1.14 | 0.521 | 0.588 | 0.568 | 0.493 |
| NCI-H647 | 1.17 | 1.3 | 1.49 | 1.18 | 1.19 | 0.5 | 0.637 | 0.578 | 0.494 | 0.494 | 0.126 | 0.114 | 0.255 | 0.112 | 1.32 | 1.47 | 0.858 | 1.33 |
| NCI-H727 | 0.469 | 0.526 | 0.401 | 0.425 | 0.509 | 0.607 | 0.778 | 0.578 | 0.622 | 0.527 | 0.366 |  | 0.378 | 0.339 | 0.63 | 0.471 | 0.483 | 0.546 |
| NCI-H838 | 1.11 | 1.16 | 1.3 | 1.17 | 1.28 | 0.557 | 0.604 | 0.656 | 0.603 | 0.555 | 0.282 | 0.226 | 0.331 | 0.309 | 0.984 | 0.984 | 0.945 | 0.909 |
| NCI-H1355 | 0.936 | 0.982 | 1 | 0.901 | 0.91 | 0.473 | 0.481 | 0.442 | 0.483 | 0.504 | 0.797 | 0.694 | 0.787 | 0.818 | 0.816 | 0.924 | 0.853 | 0.793 |
| NCI-H1395 | 1.24 | 1.24 | 1.28 | 1.17 | 1.21 | 0.419 | 0.43 | 0.424 | 0.443 | 0.445 | 0.726 | 0.774 | 0.854 | 0.621 | 0.94 | 1.34 | 0.928 | 1.04 |
| NCI-H1437 | 1.11 | 1.09 | 1.11 | 1.09 | 1.17 | 0.339 | 0.293 | 0.398 | 0.281 | 0.288 | 1.17 | 1.15 | 1.1 | 1.05 | 1.02 | 1.24 | 0.954 | 0.988 |
| NCI-H1651 | 1.04 | 0.97 | 1.07 | 0.96 | 1.2 | 0.323 | 0.345 | 0.429 | 0.331 | 0.349 | 0.767 | 0.67 | 0.918 | 0.874 | 0.956 | 1.17 | 0.944 | 0.947 |
| NCI-H1666 | 0.957 | 1.12 | 1.03 | 1.01 | 0.754 | 0.598 | 0.582 | 0.606 | 0.605 | 0.496 | 1.04 | 0.989 | 1.03 | 0.961 | 1.01 | 1.13 | 0.942 | 0.889 |
| NCI-H1734 | 0.76 | 0.799 | 0.975 | 0.809 | 0.886 | 0.342 | 0.471 | 0.513 | 0.392 | 0.385 | 0.193 | 0.174 | 0.212 | 0.186 | 0.676 | 0.884 | 0.683 | 0.59 |
| NCI-H1755 | 1.06 | 1.02 | 0.977 | 1.03 | 1.03 | 0.648 | 0.609 | 0.599 | 0.642 | 0.71 | 0.475 | 0.58 | 0.435 | 0.292 | 0.914 | 0.992 | 0.853 | 0.903 |
| NCI-H1792 | 0.716 | 0.719 | 0.787 | 0.486 | 0.542 | 0.227 | 0.345 |  | 0.386 | 0.252 | 0.411 |  | 0.571 | 0.236 | 0.722 | 0.794 | 0.665 | 0.656 |
| NCI-H1793 | 0.673 | 0.376 | 0.377 | 0.516 | 0.511 | 0.382 | 0.452 | 0.455 | 0.413 | 0.401 | 0.198 | 0.364 | 0.203 | 0.165 | 0.763 | 0.827 | 0.687 | 0.636 |
| NCI-H1915 | 0.827 | 0.765 | 0.792 | 0.824 | 0.801 | 0.363 | 0.371 | 0.378 | 0.379 | 0.383 | 0.761 | 0.69 | 0.934 | 0.762 | 1.07 | 1.14 | 1.01 | 1.12 |
| NCI-H1944 | 1.08 | 1.15 | 1.02 | 1.01 | 1.05 | 0.218 | 0.225 | 0.217 | 0.206 | 0.214 | 0.759 | 0.66 | 0.845 | 0.779 | 0.852 | 0.869 | 0.851 | 0.737 |
